For data set [1], the system named is photosynthetic electron transport chain in isolated spinach thylakoids. Put plainly: Hill reaction: light-dependent ferricyanide reduction in isolated spinach thylakoids (basal). Type of data set: biochemical, spinach (Spinacea oleracea L.). As to conditions: basal conditions, 0.05–100 μM tested, triplicate; for IC50: read-out: IC50, inhibition by 50% of the light-dependent ferricyanide reduction. On the procedure:
The ability of natural rubrolides and their synthetic analogues to interfere with the chloroplast electron transport chain was evaluated by measuring the Hill reaction in thylakoid membranes isolated from spinach leaves. The results were summarized as the concentrations able to inhibit by 50% the rate measured in untreated controls (IC50, Table 2).
Thylakoid membranes were isolated from spinach (Spinacea oleracea L.) leaves. Plant material was resuspended in 5 mL g^–1 of ice-cold 20 mM Tricine-NaOH buffer (pH 8.0) containing 10 mM NaCl, 5 mM MgCl2, and 0.4 M sucrose and homogenized for 30 s in a blender at maximal speed. The homogenate was filtered through surgical gauze, and the filtrate was centrifuged at 4 °C for 1 min at 500g; the supernatant was further centrifuged for 10 min at 1,500g. Pelleted chloroplasts were osmotically swollen by resuspension in a sucrose-lacking buffer. The suspension was immediately diluted 1:1 with sucrose-containing buffer, kept on ice in the dark, and used within a few hours from the preparation. Chlorophyll content was calculated after diluting with 80% (v/v) acetone on the basis of Arnon’s formula. The basal rate of photosynthetic electron transport was measured by following light-driven ferricyanide reduction. Membrane aliquots corresponding to 3 μg of chlorophyll were incubated at 24 °C in wells of 96-well-plates in a final volume of 200 μL in the presence of 20 mM Tricine-NaOH buffer (pH 8.0), 10 mM NaCl, 5 mM MgCl2, 0.2 M sucrose, and 2 mM K3Fe(CN)6. The assay was initiated by exposure to saturating light (600 μmol m^–2 s^–1), and the rate of ferricyanide reduction was measured at 30 s intervals for 10 min using a Ledetect 96 plate reader (Labexim, Lengau, Austria) equipped with a LED plugin at 420 nm. Activity was calculated over the linear portion of the curve from a molar extinction coefficient of 1,000 M^–1 cm^–1. Rubrolides were dissolved in DMSO to obtain 10 mM solutions, which were then diluted with H2O, as appropriate. Their effect upon the Hill reaction was evaluated in parallel assays in which the compounds were added to the reaction mixture to concentrations ranging from 0.05 to 100 μM. Each dose was carried out at least in triplicate, and results were expressed as percentage of untreated controls. Mean values ± SE over replicates are reported. The concentrations causing 50% inhibition (IC50) and their confidence limits were estimated by nonlinear regression analysis using Prism 6 for Windows, version 6.03 (GraphPad Software).

For data set [2], the system named is photosynthetic electron transport chain in isolated spinach chloroplast. Put plainly: Ferricyanide reduction under uncoupling and phosphorylating conditions. The format is biochemical, spinach (Spinacea oleracea L.). The note with it: 10^–7 to 10^–5 M range. On the procedure:
Diuron was included as a positive control.
(§1) Phosphorylating electron flow was evaluated under the same conditions but in the presence of 0.5 mM ADP and 2 mM K2HPO4. Uncoupled activity was measured following the addition of 2 mM NH4Cl to the basal reaction mixture containing aliquots of membrane preparations corresponding to 1.5 μg of chlorophyll. To evaluate the effect on PSII only, uncoupled activity was blocked by the addition of the cytochrome b6f inhibitor 2,5-dibromo-6-isopropyl-3-methyl-1,4-benzoquinone (DBMIB) at […], and an electronic transfer from H2O to ferricyanide that excludes PSI (H2O → PSII → D1 protein → phenylendiamine → ferricyanide) was restored through the addition of 0.1 mM phenylenediamine. In this case, due to the lower reduction rate, aliquots of membrane preparations corresponding to 6 μg of chlorophyll were used.

For data set [3], the target named is T1, PSII (Spinacia oleracea, UniProt P69560).
T1 construct: Thylakoid membranes were isolated from spinach (Spinacea oleracea L.) leaves; from tissue; host or cells: spinach leaves (thylakoid membranes)
The data set can be described thus: Partial electron flow involving PSII only (excluding PSI). The format is biochemical, spinach (Spinacea oleracea L.). As to conditions: DBMIB-blocked, phenylenediamine-restored flow excluding PSI.
Excerpt: An interference with the cytochrome b6f complex cannot be completely excluded, but this difference could simply rely on the experimental conditions employed. To evaluate the effect on PSII only, uncoupled activity is blocked by the addition of the cytochrome b6f inhibitor 2,5-dibromo-6-isopropyl-3-methyl-1,4-benzoquinone, and an electronic transfer from H2O to ferricyanide that excludes PSI is restored through addition of phenylenediamine. […] A similar effect was previously noticed also in the case of other inhibitors.[10b],[10e],[10j]
as §1

Data set [4] deals with Raphanus sativus. Put plainly: Growth of Raphanus sativus seedlings sown in the presence of the compound. Type of data set: in vivo, Raphanus sativus cv Scarlet Champion. As to conditions: 10 μM in agarized medium; growth measured at three-leaf stage, 3 weeks after sowing. On the procedure:
The ability of these compounds to interfere with plant growth was evaluated by measuring the growth of Raphanus sativus seedlings that had been sown in the presence of a given rubrolide. […] In that case, compound 5 was also found inhibitory, but at a 20-fold higher concentration (200 μM).
Figure 1 Effect of natural rubrolides 1–7 on the growth of the model plant Raphanus sativus. Seeds were sown in the presence of a given compound at a concentration of 10 μM. Controls received the same volume of DMSO (0.1%) used to dissolve the rubrolides. The commercial herbicide hexazinone was also included, as a positive control. Growth was measured when untreated plants reached the three-leaf stage, 3 weeks after sowing. Results were analyzed using Prism 6 for Windows by means of the Kolmogorov–Smirnov normality test (P = 0.05), and then subjected to 1-way ANOVA. […] Results were plotted as a box and whiskers plot showing 10–90th percentiles.
Seeds of Raphanus sativus cv Scarlet Champion were surface sterilized by treatment with ethanol for 4 min and with 3% NaClO containing 0.04% Triton X-100 for 8 min under vacuum. […] The fresh biomass of each seedling was measured at that point by a destructive harvest. […]

In data set [5] the test system is rapeseed. Set-up: method as in PMID 38695089. As to conditions: cited from earlier work; for Inhibition of rapeseed growth: greenhouse treatments.

Several values for one entry are separate records, joined by “and”; a condition that tells them apart may be missing. Equal values may be shown once. Entries after “also recorded” stand apart in the source; their conditions may differ.

With `O=C1O/C(=C\c2cc(Br)c(O)c(Br)c2)C(c2cc(Br)c(O)c(Br)c2)=C1Cl` [Compound 1, rubrolide B], in data set [1], the half-maximal inhibitory concentration (IC50) came out at 8.62 ± 1.89 µM.
Take `O=C1O/C(=C\c2ccc(O)c(Br)c2)C(c2ccc(O)c(Br)c2)=C1Cl` [Compound 3, rubrolide K]: in data set [1], the 50% inhibitory concentration (IC50) was found to be 8 ± 2.05 µM.
On to `O=C1O/C(=C\c2ccc(O)c(Br)c2)C(c2cc(Br)c(O)c(Br)c2)=C1Cl` [Compound 4, rubrolide O], for which, in data set [1], the IC50 turned out to be 4.37 ± 0.8 µM. The “Effect on ferricyanide reduction under uncoupling and phosphorylating conditions” value (shortened to “Effect on ferricyanide reduction”) in data set [2] is given as “progressive reduction of the activity”. Moreover, the “Effect on partial electron flow involving PSII only versus whole transport chain” value in data set [3] is on record as “able to inhibit the electron transfer from PSII to the cytochrome b6f complex”.
Take `O=C1C=C(c2ccc(O)cc2)/C(=C/c2ccc(O)cc2)O1` [Compound 5, rubrolide E]: the “Effect on growth of Raphanus sativus seedlings (phytotoxicity)” value in data set [4] is “ineffective”. The “IC50, inhibition by 50% of the light-dependent ferricyanide reduction” value in data set [1] was “ineffective; also recorded: lack activity; also recorded: n.e. ^a”. The “Inhibition of rapeseed growth at 200 μM” value in data set [5] (200 μM (20-fold higher concentration)) is “inhibitory”. Besides, the “Inhibition of rapeseed growth” value in data set [5] is reported as “inhibit rapeseed growth”.
Turning to `COc1ccc(/C=C2\OC(=O)C=C2c2ccc(O)cc2)cc1` [Compound 6, rubrolide F], in data set [1], the 50% inhibitory concentration (IC50) is > 25 µM and 29.3 µM. Moreover, in data set [5], the “Inhibition of rapeseed growth” value is “inhibit rapeseed growth”.
With `COc1ccc(/C=C2\OC(=O)C(Cl)=C2c2ccccc2)cc1` [Compound 12], the half-inhibitory concentration (IC50) in data set [1] is 257 ± 273 µM.
In turn, `O=C1O/C(=C\c2ccc(F)cc2Cl)C(c2ccccc2)=C1Cl` [Compound 13] had a melting point of 145.3 to 147 °C. Moreover, in data set [1], the IC50 was 35.9 ± 7.7 µM.
For `COc1ccc(Cl)cc1C1=C(Cl)C(=O)O/C1=C\c1ccc2c(c1)OCO2` [Compound 15], the melting point lay in the range of 134.9 to 136.2 °C.
Regarding `O=C1O/C(=C\c2ccc(-c3ccccc3)s2)C(c2ccc(F)cc2)=C1Cl` [Compound 16], the melting point is 218.3 to 219.8 °C (dec.). In data set [1], the half-inhibitory concentration (IC50) turned out to be 266 ± 272 µM.
Regarding `O=C1O/C(=C\c2ccnc(Br)c2)C(c2ccc(F)cc2)=C1Cl` [Compound 17], the melting point lay in the range of 150.3 to 152.8 °C. Further, the “IC50, inhibition by 50% of the light-dependent ferricyanide reduction” value in data set [1] is “n.e. ^a”.
With `COc1ccc(C2=C(Cl)C(=O)O/C2=C\c2ccc(OC)c(Br)c2)cc1Cl` [Compound 19], in data set [1], the “IC50, inhibition by 50% of the light-dependent ferricyanide reduction” value is “no activity and n.e”.
In the case of `O=C1O/C(=C\c2ccc(O)c(Br)c2)C(c2ccc(O)c(Cl)c2)=C1Cl` [Compound 20, (Z)-5-(3-Bromo-4-hydroxybenzylidene)-3-chloro-4-(3-chloro-4-hydroxyphenyl)furan-2(5H)-one], the melting point was 210 to 213 °C (dec.). Moreover, the IC50 in data set [1] came to 4.97 ± 1.05 µM. For the same compound, in data set [2], the “Effect on ferricyanide reduction” value was “progressive reduction of the activity”. Also, the “Effect on partial electron flow involving PSII only versus whole transport chain” value in data set [3] was “able to inhibit the electron transfer from PSII to the cytochrome b6f complex”.
In the case of `CN(C)C(=O)Nc1ccc(Cl)c(Cl)c1` [Diuron, reference compound], in data set [1], the IC50 is 0.27 ± 0.01 µM. The “Effect on partial electron flow involving PSII only versus whole transport chain” value in data set [3] is listed as “very similar effectiveness”.
On to rubrolide C, for which, in data set [5], the “Inhibition of rapeseed growth” value was “inhibit rapeseed growth”.
Take rubrolide I [Compound 2]: in data set [1], the IC50 is 5.54 ± 0.98 µM. The “Effect on ferricyanide reduction” value in data set [2] is listed as “progressive reduction of the activity”. The “Effect on partial electron flow involving PSII only versus whole transport chain” value in data set [3] was “able to inhibit the electron transfer from PSII to the cytochrome b6f complex”.

As usually defined, the IC50 is the concentration needed to halve the response being measured. A word on the melting point: it is the temperature, or range, at which the solid turns liquid.

(Values after article PMC11443480, “Natural Rubrolides and Their Synthetic Congeners as Inhibitors of the Photosynthetic Electron Transport Chain” (Journal of Natural Products, 2024).)
